Measured values taken from patent US20260048155A1, “BIOCOMPATIBLE PARAHYDROGEN HYPERPOLARIZED SOLUTIONS BY PRECIPITATION AND RE-DISSOLUTION” (North Carolina State University, priority 2022, published 2026).

Key:
[1] = Re-dissolution (Re-D) SABRE: precipitation with ethyl acetate, re-dissolution in water, phase separation at different magnetic fields; format: physicochemical
Protocol: To investigate the precipitation and re-dissolution of HP [1-^13C]pyruvate, a phase separation approach was applied, FIGS. 5A-5B. To this end, the fact that water and EtAc are immiscible was exploited to modify the setup and procedure accordingly. In this approach, the precipitation was performed in the same NMR tube where hyperpolarization took place. 400 μL EtAc were added quickly to the sample consisting of 100 μL of 30 mM HP [1-^13C]pyruvate, right after removing this sample from the 0.4 μT field and releasing the pressure (≈3-4 s). To mix the solution after EtAc addition, further p-H2 bubbling was used at a low flow rate (˜5-10 scc/m, ambient pressure), FIGS. 5A-5B. For re-dissolution, 300 μL water were added directly to the NMR tube with the precipitate-containing solution, and again, gas flow was used to mix and dissolve the pyruvate microcrystals. After mixing the solutions, most of the aqueous phase rapidly separated from the organic phase (≈1 s). Typical precipitation time was tprec≈2 s and water addition time twater≈6 s, where twater consisted of 1 s to add water, plus 4 s to bubble gas, and 1 s to settle the solution, FIGS. 5A-5B (see FIG. 17 for more information). […] Using this protocol, the obtained two-phase samples visibly contained a major fraction of the catalyst in the organic phase (which remained yellowish and turned reddish after exposure to atmosphere, FIG. 15), whereas a clear aqueous solution of total volume of ≈335±10 μL was obtained (as detailed below approximately half of the CH3OH remained in the aqueous phase), FIGS. 14A-14B. The total volumes of the investigated mixtures containing the precipitate were approximately 500 μL (3.9 cm fill height in the NMR tube), and after the addition of water the total fluid volume was ≈800 μL (≈6 cm fill height). During the phase mixing, parts of the sample were lifted by approximately 5 cm by the ascending p-H2 gas bubbles. The sample height in the NMR tube was the decisive factor affecting the choice of solvent volumes to minimize the mixtures from leaving the 1.4 T field of the benchtop NMR spectrometer (approximately 10 cm along the sample tube) as much as possible. […] These limitations are clear shortcomings of the current experimental design and can be remedied in the future with purpose-built hyperpolarization equipment.
This separation approach was investigated at 4 different magnetic fields: (i) Earth's field; (ii) 10 mT; (iii) 0.3 T; and (iv) 1.4 T, FIGS. 6A-6B. More details on the experiment setups are reported in the SI. Re-D SABRE was performed at (i)-(iv), and the samples were then rapidly transferred to the benchtop 1.4 T NMR, such that the aqueous phase was approximately centered in the radiofrequency coil. In case (iv), for which no transfer was needed, a ≈5-s delay was added to the end of the protocol for consistency with the time needed to transfer the samples in (i-iii).
The detection and quantification of hyperpolarization took place at 1.4 T in all cases.
A more rigorous phase mixing protocol was tested, where the bubbling tube was moved up and down rapidly three times for phase mixing during the twater≈6 s mixing time. […] Considering the final volume of the aqueous phase of 335±10 μL and the measured pyruvate concentration of 5.8±0.8 mM (in the diluted Re-D SABRE sample), the detected ^13C signals corresponded to a nuclear polarization of P13C=9±1% or 8±1%, i.e., ε13C of ≈75,000 at 1.4 T, respectively, N=2 samples, FIGS. 7A-8B. […]

[2] = Precipitation and syringe/cotton filtering of HP pyruvate at 10 mT; format: physicochemical; conditions: 4.5 mL EtAc, filter at 10 mT, 1 mL H2O, 90-100 s procedure, repeated three times
Protocol: As described above, filtering of non-hyperpolarized pyruvate from the precipitated solutions was tested using in-line syringe filters (FIGS. 9A-9C), and the obtained solutions of supernatant and dissolved microcrystals were analyzed with high resolution NMR. Cotton filters were also used as a performance metric for the syringe filters. Each sample was SABRE-SHEATH-polarized as described previously for three times to quantify the mean base-line hyperpolarization before precipitation (for this batch of samples, P13C=10±1% in CH3OH). Because a short lifetime of ^13C magnetization was expected at ultralow field, the precipitation procedure was performed at an elevated field of 10 mT (see setup described in section 5). At this field, proton and ^13C Zeeman levels are separated by >350 kHz, i.e., an order of magnitude greater than the dipolar spin-spin couplings present in the solid state. To this end, after the hyperpolarization procedure was completed, the sample was rapidly removed from the 0.30 μT field, depressurized, and filled into a 10-mL plastic syringe held at a 10 mT field mounted to a Luer-locked filter. After depressurization (˜10-15 s after hyperpolarization) 4.5 mL EtAc was added, the solution was stirred manually, and the filtration was started, taking a total of about 1 min following hyperpolarization. […]

[3] = 30 mM pyruvate, prior SABRE-SHEATH work (background); cited from earlier work

SMILES: CC(=O)[13C](=O)O [[1-^13C]pyruvate]
- ε13C after Re-D SABRE ([1]; aqueous phase, at 1.4 T): ≈ 75,000
- P13C after Re-D SABRE ([1]; precipitation and re-dissolution at 0.3 T, N=2, aqueous phase): 4.0±0.8%
- P13C after Re-D SABRE ([1]; precipitation and re-dissolution at 1.4 T, N=3, aqueous phase): 3.6±0.6%
- P13C after Re-D SABRE ([1]; precipitation and re-dissolution at 10 mT, aqueous phase, detected at 1.4 T): 0.05±0.02%
- HP 13C signal after Re-D SABRE ([1]; precipitation and re-dissolution at Earth's field, detected at 1.4 T): No HP ^13C signal was observed
- HP 13C signal after precipitation and filtering [2]: no HP ^13C signal was observed
- P13C in the free state [3]: 13%
